From patent publication US20260070913A1, “7-AMINO-3,4-DIHYDROPYRIMIDOPYRIMIDIN-2-ONE DERIVATIVE HAVING INHIBITORY ACTIVITY FOR PROTEIN KINASES AND THERAPEUTIC PHARMACEUTICAL COMPOSITION COMPRISING SAME” (KOREA INSTITUTE OF SCIENCE AND TECHNOLOGY, priority 2020, published 2026)

How the values were obtained:
Ba/F3 (N-Ras G12D) = test: Proliferation inhibitory activity, mt-NRAS (G12D) Ba/F3 cell line; type: cell-based; details: Mus musculus, BaF3
Procedure: (§1) The inhibitory activities of the compounds of the present disclosure against the proliferation of the mt-NRAS (G12D) Ba/F3 and OCI-AML3 (mt-NRAS) cell lines were measured, and the […] values thereof were calculated.

ACK1 = ACK1 (Homo sapiens, UniProt Q07912); test: Inhibitory activity against ACK1 kinase; type: biochemical
ACK1, sequence (Q07912 whole entry): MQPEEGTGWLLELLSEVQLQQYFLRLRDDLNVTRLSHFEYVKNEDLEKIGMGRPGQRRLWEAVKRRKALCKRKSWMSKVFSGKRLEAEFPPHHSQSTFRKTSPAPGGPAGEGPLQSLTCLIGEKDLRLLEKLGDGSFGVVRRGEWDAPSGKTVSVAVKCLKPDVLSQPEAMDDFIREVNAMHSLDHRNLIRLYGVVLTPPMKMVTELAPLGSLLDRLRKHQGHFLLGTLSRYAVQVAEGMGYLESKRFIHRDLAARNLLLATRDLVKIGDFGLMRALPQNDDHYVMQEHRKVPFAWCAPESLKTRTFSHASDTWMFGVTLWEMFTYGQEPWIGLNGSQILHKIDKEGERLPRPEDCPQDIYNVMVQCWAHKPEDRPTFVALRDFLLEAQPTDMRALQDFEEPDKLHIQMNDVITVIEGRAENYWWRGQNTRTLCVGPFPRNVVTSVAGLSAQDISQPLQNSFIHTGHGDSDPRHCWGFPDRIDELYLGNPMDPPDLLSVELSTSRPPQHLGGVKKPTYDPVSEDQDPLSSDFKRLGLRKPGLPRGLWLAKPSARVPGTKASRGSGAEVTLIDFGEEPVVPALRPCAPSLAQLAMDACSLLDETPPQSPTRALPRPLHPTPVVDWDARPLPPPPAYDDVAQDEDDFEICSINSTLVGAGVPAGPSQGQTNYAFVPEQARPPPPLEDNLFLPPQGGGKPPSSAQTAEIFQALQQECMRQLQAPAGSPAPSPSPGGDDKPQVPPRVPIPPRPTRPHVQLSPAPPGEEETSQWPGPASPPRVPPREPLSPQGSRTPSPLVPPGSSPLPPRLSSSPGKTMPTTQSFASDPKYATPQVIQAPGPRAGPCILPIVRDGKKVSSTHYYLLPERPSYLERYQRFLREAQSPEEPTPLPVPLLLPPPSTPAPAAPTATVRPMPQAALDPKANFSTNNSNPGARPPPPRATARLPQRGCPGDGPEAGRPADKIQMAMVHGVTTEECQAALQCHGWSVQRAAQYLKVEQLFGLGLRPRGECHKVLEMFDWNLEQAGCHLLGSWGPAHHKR
Procedure: (§2) The inhibitory activities of the compounds of the present disclosure against two kinases, GCK and ACK1, were measured, and the IC50 values thereof were calculated.

OCI-AML3 (N-Ras Q61L) = test: Proliferation inhibitory activity, OCI-AML3 cell line; type: cell-based; details: Homo sapiens, OCI-AML-3
Procedure: as §1
Referring to the results in Table 2, it can be seen that the compound of the present disclosure has inhibitory activity against the proliferation of the human acute myeloid leukemia cell line (OCI-AML3) having the NRAS mutant gene, and the effect thereof is remarkable. Therefore, it can be seen that the compound of the present disclosure is particularly effective as a therapeutic agent for acute myeloid leukemia (AML).

GCK = target: T1, GCK (Homo sapiens, UniProt Q12851); test: Inhibitory activity against GCK kinase; type: biochemical
T1 sequence (Q12851 1-820): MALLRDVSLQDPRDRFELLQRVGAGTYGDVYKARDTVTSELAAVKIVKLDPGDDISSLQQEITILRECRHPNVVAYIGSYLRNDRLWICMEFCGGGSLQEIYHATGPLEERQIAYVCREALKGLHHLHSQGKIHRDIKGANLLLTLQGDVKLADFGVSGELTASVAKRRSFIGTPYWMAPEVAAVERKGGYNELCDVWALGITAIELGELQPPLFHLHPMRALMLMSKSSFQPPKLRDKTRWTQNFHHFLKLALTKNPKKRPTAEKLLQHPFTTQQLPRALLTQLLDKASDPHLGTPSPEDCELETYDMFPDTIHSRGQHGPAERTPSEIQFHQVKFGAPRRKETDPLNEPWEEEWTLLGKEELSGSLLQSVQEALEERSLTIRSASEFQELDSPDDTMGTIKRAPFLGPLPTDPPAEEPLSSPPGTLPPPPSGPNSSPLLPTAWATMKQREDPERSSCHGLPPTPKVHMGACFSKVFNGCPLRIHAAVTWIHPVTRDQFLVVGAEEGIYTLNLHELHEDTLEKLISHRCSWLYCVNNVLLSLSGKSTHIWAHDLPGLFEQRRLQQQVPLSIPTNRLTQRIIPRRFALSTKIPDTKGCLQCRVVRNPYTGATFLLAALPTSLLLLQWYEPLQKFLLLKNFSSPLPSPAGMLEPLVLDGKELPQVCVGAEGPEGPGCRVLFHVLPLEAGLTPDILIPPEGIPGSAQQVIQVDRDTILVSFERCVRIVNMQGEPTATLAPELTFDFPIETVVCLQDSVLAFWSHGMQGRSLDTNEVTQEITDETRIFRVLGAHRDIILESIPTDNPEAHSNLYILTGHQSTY
Procedure: as §2

Row | GI50 (Ba/F3 (N-Ras G12D)) [µM] | IC50 (ACK1) [nM] | GI50 (OCI-AML3 (N-Ras Q61L)) [µM] | IC50 (GCK) [nM] | Structure (SMILES)
1 | < 0.5 | < 100 | < 0.5 | 100 to 1000 | COc1ccccc1-c1cnc(-c2ccc(C)c(N3Cc4cnc(Nc5cnn(C)c5)nc4N(C)C3=O)c2)[nH]1 [Compound No. 1, 3-(5-(5-(2-methoxyphenyl)-1H-imidazol-2-yl)-2-methylphenyl)-1-methyl-7-((1-methyl-1H-pyrazol-4-yl)amino)-3,4-dihydropyrimido[4,5-d]pyrimidin-2(1H)-one]
2 | < 0.5 | < 100 | < 0.5 | 100 to 1000 | COc1ccccc1-c1cnc(-c2ccc(C)c(N3Cc4cnc(Nc5cnn(C6CCN(C(C)=O)CC6)c5)nc4N(C)C3=O)c2)[nH]1 [Compound No. 7, 7-((1-(1-acetylpiperidin-4-yl)-1H-pyrazol-4-yl)amino)-3-(5-(5-(2-methoxyphenyl)-1H-imidazol-2-yl)-2-methylphenyl)-1-methyl-3,4-dihydropyrimido[4,5-d]pyrimidin-2(1H)-one]
3 | 0.5 to 3 |  | 0.5 to 3 |  | COc1ccccc1-c1cnc(-c2ccc(C)c(N3Cc4cnc(Nc5ccc(C)nc5C)nc4N(C)C3=O)c2)[nH]1 [Compound No. 2, 7-((2,6-dimethylpyridin-3-yl)amino)-3-(5-(5-(2-methoxyphenyl)-1H-imidazol-2-yl)-2-methylphenyl)-1-methyl-3,4-dihydropyrimido[4,5-d]pyrimidin-2(1H)-one]
4 | < 0.5 | < 100 | < 0.5 | 1000 to 10000 | COc1ccccc1-c1cnc(-c2ccc(C)c(N3Cc4cnc(Nc5ccc(N6CCN(C(C)=O)CC6)nc5)nc4N(C)C3=O)c2)[nH]1 [Compound No. 6, 7-((6-(4-acetylpiperazin-1-yl)pyridin-3-yl)amino)-3-(5-(5-(2-methoxyphenyl)-1H-imidazol-2-yl)-2-methylphenyl)-1-methyl-3,4-dihydropyrimido[4,5-d]pyrimidin-2(1H)-one]
5 | < 0.5 | < 100 | < 0.5 | 100 to 1000 | CCN1CCC(c2ccc(Nc3ncc4c(n3)N(C)C(=O)N(c3cc(-c5ncc(-c6ccccc6OC)[nH]5)ccc3C)C4)cn2)CC1 [Compound No. 5, 7-((6-(1-ethylpiperidin-4-yl)pyridin-3-yl)amino)-3-(5-(5-(2-methoxyphenyl)-1H-imidazole-2-yl)-2-methylphenyl)-1-methyl-3,4-dihydropyrimido[4,5-d]pyrimidin-2(1H)-one]
6 | 3 to 5 | 1000 to 10000 | < 0.5 | > 10000 | Cc1ccc(Nc2ncc3c(n2)N(C)C(=O)N(c2cc(-c4ncc(-c5cccc(C(F)(F)F)c5)[nH]4)ccc2C)C3)cn1 [Compound No. 13, 1-methyl-3-(2-methyl-5-(5-(3-(trifluoromethyl)phenyl)-1H-imidazol-2-yl)phenyl)-7-((6-methylpyridin-3-yl)amino)-3,4-dihydropyrimido[4,5-d]pyrimidin-2(1H)-one]
7 | 3 to 5 |  | > 5 |  | CCN1CCC(c2ccc(Nc3ncc4c(n3)N(C)C(=O)N(c3cc(-c5ncc(-c6ccccc6OC(F)(F)F)[nH]5)ccc3C)C4)cn2)CC1 [Compound No. 15, 7-((6-(1-ethylpiperidin-4-yl)pyridin-3-yl)amino)-1-methyl-3-(2-methyl-5-(5-(2-(trifluoromethoxy)phenyl)-1H-imidazol-2-yl)phenyl)-3,4-dihydropyrimido[4,5-d]pyrimidin-2(1H)-one]

The next lines start with the compound.

Row | Structure (SMILES) | GI50 (Ba/F3 (N-Ras G12D)) [µM] | IC50 (ACK1) [nM] | GI50 (OCI-AML3 (N-Ras Q61L)) [µM] | IC50 (GCK) [nM]
8 | Cc1ccc(-c2ncc(-c3ccccc3OC(F)(F)F)[nH]2)cc1N1Cc2cnc(Nc3ccc(N4CCOCC4)cc3)nc2N(C)C1=O [Compound No. 18, 1-methyl-3-(2-methyl-5-(5-(2-(trifluoromethoxy)phenyl)-1H-imidazol-2-yl)phenyl)-7-((4-morpholinophenyl)amino)-3,4-dihydropyrimido[4,5-d]pyrimidin-2(1H)-one] | 0.5 to 3 | < 100 | > 5 | 1000 to 10000
9 | Cc1ccc(Nc2ncc3c(n2)N(C)C(=O)N(c2cc(-c4ncc(-c5cccc(F)c5F)[nH]4)ccc2C)C3)cn1 [Compound No. 12] | 0.5 to 3 | 100 to 1000 | < 0.5 | > 10000
10 | CC(=O)N1CCN(c2ccc(Nc3ncc4c(n3)N(C)C(=O)N(c3cc(-c5ncc(-c6ccccc6OC(F)(F)F)[nH]5)ccc3C)C4)cn2)CC1 [Compound No. 14, 7-((6-(4-acetylpiperazin-1-yl)pyridin-3-yl)amino)-1-methyl-3-(2-methyl-5-(5-(2-(trifluoromethoxy)phenyl)-1H-imidazol-2-yl)phenyl)-3,4-dihydropyrimido[4,5-d]pyrimidin-2(1H)-one] | 0.5 to 3 | 100 to 1000 | 0.5 to 3 | 100 to 1000
11 | CCN1CCC(n2cc(Nc3ncc4c(n3)N(C)C(=O)N(c3cc(-c5ncc(-c6ccccc6OC)[nH]5)ccc3C)C4)cn2)CC1 [Compound No. 4, 7-((1-(1-ethylpiperidin-4-yl)-1H-pyrazol-4-yl)amino)-3-(5-(5-(2-methoxyphenyl)-1H-imidazol-2-yl)-2-methylphenyl)-1-methyl-3,4-dihydropyrimido[4,5-d]pyrimidin-2(1H)-one] | < 0.5 | < 100 | < 0.5 | 100 to 1000
12 | CC(=O)N1CCC(n2cc(Nc3ncc4c(n3)N(C)C(=O)N(c3cc(-c5ncc(-c6ccccc6OC(F)(F)F)[nH]5)ccc3C)C4)cn2)CC1 [Compound No. 17, 7-((1-(1-acetylpiperidin-4-yl)-1H-pyrazol-4-yl)amino)-1-methyl-3-(2-methyl-5-(5-(2-(trifluoromethoxy)phenyl)-1H-imidazol-2-yl)phenyl)-3,4-dihydropyrimido[4,5-d]pyrimidin-2(1H)-one] | > 5 |  | > 5 | 
13 | Cc1ccc(Nc2ncc3c(n2)N(C)C(=O)N(c2cc(-c4ncc(-c5ccccc5OC(F)(F)F)[nH]4)ccc2C)C3)cn1 [Compound No. 9, 1-methyl-3-(2-methyl-5-(5-(2-(trifluoromethoxy)phenyl)-1H-imidazol-2-yl)phenyl)-7-((6-methylpyridin-3-yl)amino)-3,4-dihydropyrimido[4,5-d]pyrimidin-2(1H)-one] | < 0.5 | 100 to 1000 | 0.5 to 3 | > 10000
14 | CCN1CCN(c2ccc(Nc3ncc4c(n3)N(C)C(=O)N(c3cc(-c5ncc(-c6ccccc6OC(F)(F)F)[nH]5)ccc3C)C4)cn2)CC1 [Compound No. 16, 7-((6-(4-ethylpiperazin-1-yl)pyridin-3-yl)amino)-1-methyl-3-(2-methyl-5-(5-(2-(trifluoromethoxy)phenyl)-1H-imidazol-2-yl)phenyl)-3,4-dihydropyrimido[4,5-d]pyrimidin-2(1H)-one] | > 5 |  | > 5 | 
15 | Cc1ccc(Nc2ncc3c(n2)N(C)C(=O)N(c2cc(-c4ncc(-c5ccccc5OC(F)(F)F)[nH]4)ccc2C)C3)c(C)n1 [Compound No. 8, 7-((2,6-dimethylpyridin-3-yl)amino)-1-methyl-3-(2-methyl-5-(5-(2-(trifluoromethoxy)phenyl)-1H-imidazole-2-yl)phenyl)-3,4-dihydropyrimido[4,5-d]pyrimidin-2(1H)-one] | 0.5 to 3 |  | 3 to 5 | 
